Assay results taken from patent US12691100B2, “NMT inhibitor treatment of a senescence-associated disease or disorder of the liver” (Imperial College Innovations Limited, priority 2020, dated 2026).

Assay: Liver lipids (Oil Red O) and blood glucose in the same cohort of old mice
Assay type: in vivo, C57BL/6J female mice
Conditions: 10 mg/kg i.p.
Description: For analysis of immune cell composition in whole blood, tail-vein blood was collected 2 days after last treatment. Whole blood was diluted in saline to a volume of […] and ran on a Sysmex XE2100 automated cell counter. Blood glucose levels were determined by collecting whole-blood from tail vein into heparinised tubes (Abraxis), 120-140 μL of whole-blood to be loaded onto a comprehensive diagnostic profile reagent rotor (Abraxis) and run on a VetScan VS2 Chemistry Analyzer (Abraxis: 500-7123).
Oil Red O staining for lipids was carried out on liver tissue in OCT was snap-frozen in liquid N2 and cryosectioned (15 μM). Sections were equilibrated to RT for 10 min and then stained with 0.5% Oil Red O solution (w/v, in isopropanol, Sigma, O1391) for 5 min, rinsed in tap water and counterstained with Mayer's hematoxylin for 30 s. Then sections were again rinsed in tap water for 30 min and coverslips mounted. Images were acquired on Zeiss AxioScan Z.1 and ImageJ quantification of Oil-red stain area relative to background tissue area performed for 3 fields per section.
To understand what effects are associated with the treatment with NMT inhibitors in vivo, we analysed different parameters in the same cohort of old mice described in FIG. 17A. First, we looked into the accumulation of lipid droplets in the liver using Oil Red O staining. These are an indication of hepatic steatosis, and importantly, elimination of senescent cells has been previously shown capable to reduce steatosis.
Other pathological change observed in old mice is the presence of increased levels of glucose in blood. This can be related with diabetes or metabolic disease. Importantly, both pathologies have been associated with the presence of senescent cells.

Cc1c(NS(=O)(=O)c2c(Cl)cc(-c3ccnc(N4CCNCC4)c3)cc2Cl)c(CC(C)C)nn1C [Compound 2]
Glucose in blood, fasted mice (old mice fasted, FIG. 18C): lower levels of glucose | Glucose in blood, fed mice (old mice kept fed, FIG. 18B): lower levels of glucose | Accumulation of lipids in the liver (Oil Red O staining) (~26 month female mice, FIG. 18A): reduced accumulation of lipids in the liver
